SMILES strings stand for the structures.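 Grown in 96-well plates, cells were treated for 48 hours with each compound at five concentrations. Insufficient inhibition: endpoint recorded as highest concentration tested. GI50 is the concentration that inhibits growth by half.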 Activity calls are given as the source filed them. Rule as the data show it: active = GI50 up to about 1.1 µM and inactive = higher.

Holding throughout (experiment): inhibition of tumour cell growth, NCI panel, 48 h
Assay [1] deals with HOP-62.
Assay [2] has as its system 786-0.
In assay [3] the test system is K562.
For assay [4], the system named is NCI-H226.
Assay [5] has as its system DU-145.
Assay [6] concerns SW-620.
For assay [7], the system named is SK-MEL-5.
Assay [8] relates to HCT-116.
Assay [9] has as its system SK-OV-3.
For assay [10], the system named is CAKI-1.
Assay [11] has as its system SN12C.
The test system of assay [12] is TK-10.
Assay [13] concerns OVCAR-3.
In assay [14] the test system is MDA-N.
The subject of assay [15] is Hs-578T.
Assay [16] has as its system HL-60.
For assay [17], the system named is SNB-19.
In assay [18] the test system is MOLT-4.
Assay [19] deals with SK-MEL-28.
The subject of assay [20] is BT-549.

As for `COc1ccc(C2C=C(c3ccccc3)Nc3nnnn32)cc1` (stereo not given), the GI50 was 25.5 µM (inactive) in [1]; 27.5 µM (inactive) in assay [2]; 50.6 µM (inactive) in assay [3]; 64 µM (inactive) in assay [4]; 28.4 µM (inactive) in assay [5]; 37.3 µM (inactive) in [6]. Moreover, the GI50 in assay [7] was 34.4 µM (inactive); in [8] it was 13.5 µM (inactive); in assay [9], 31.7 µM (inactive); in assay [10] it was 54 µM (inactive); in assay [11], > 100 µM (inactive); in [12], 6.27 µM (inactive). Besides, the GI50 is 24.9 µM (inactive) in assay [13]; 45.1 µM (inactive) in [14]; 40.6 µM (inactive) in [15]; > 100 µM (inactive) in [16]; 97.9 µM (inactive) in assay [17]; > 100 µM (inactive) in assay [18].

On to `O=P(c1ccccc1)(c1ccccc1)C(NCc1ccccc1)c1ccc(F)cc1` (stereo not given), for which the GI50 in assay [1] is 21.6 µM (inactive); in [2], 18.5 µM (inactive); in [3], 18.7 µM (inactive); in assay [19], 15.1 µM (inactive); in assay [4], 16.2 µM (inactive); in assay [5], 20 µM (inactive). The GI50 is 18.5 µM (inactive) in assay [6]; 15.9 µM (inactive) in assay [7]; 12.8 µM (inactive) in assay [8]; 16.1 µM (inactive) in assay [9]; 17 µM (inactive) in [10]; 17.9 µM (inactive) in [11]. Further, the GI50 in assay [12] is 15.9 µM (inactive); in [13], 14.2 µM (inactive); in assay [14], 17.1 µM (inactive); in assay [15], 28.4 µM (inactive); in [16], 17.5 µM (inactive); in assay [17] it was 17.9 µM (inactive). The GI50 in [18] was 14.2 µM (inactive).

`Oc1nc(CC(O)c2ccc(Cl)c(Cl)c2)cc(-c2ccccc2)n1` (stereo not given): the GI50 in assay [1] was > 100 µM (inactive); in assay [2], > 100 µM (inactive); in assay [3] it was 51.3 µM (inactive); in assay [19], > 100 µM (inactive); in assay [4] it was 55.8 µM (inactive); in [6], > 100 µM (inactive). The GI50 was 37.8 µM (inactive) in [7]; 49.8 µM (inactive) in assay [8]; 43.6 µM (inactive) in [9]; 55.6 µM (inactive) in [10]; > 100 µM (inactive) in [11]; 24.8 µM (inactive) in [12]. For the same compound, the GI50 in assay [13] was 48.8 µM (inactive); in [16] it was 25.1 µM (inactive); in [17], 67.9 µM (inactive); in assay [18], 75.3 µM (inactive).

In the case of `CC1CC/C(=C\c2ccc(F)cc2)C2=C1C(c1ccc(F)cc1)n1c(s/c(=C\c3ccc(Cl)cc3)c1=O)=N2` (stereo not given), the GI50 in [1], in assay [2], in [3], in assay [19], in [5] and in assay [6] was > 100 µM (inactive) throughout. Besides, the GI50 in assay [7], in assay [8], in [9], in assay [10], in [11] and in assay [12] was > 100 µM (inactive) in each case. Also, the GI50 in assay [14], in [15], in assay [16], in [17] and in [18] was > 100 µM (inactive) each time.

Regarding `C=C(Br)CN(CC(=C)Br)C(C)=O`, the GI50 in assay [1], in assay [2], in assay [3], in assay [19], in [4] and in assay [5] was > 100 µM (inactive) each time. The GI50 in assay [6], in assay [7], in [8], in [9], in [10] and in [11] was > 100 µM (inactive) in each case. The GI50 in assay [12] was > 100 µM (inactive); in [13] it was > 100 µM (inactive); in assay [14] it was > 100 µM (inactive); in assay [15], > 100 µM (inactive); in assay [16] it was > 100 µM (inactive); in assay [17], 78.9 µM (inactive). Also, the GI50 in assay [18] was > 100 µM (inactive).

For `CN1N=C(c2ccncc2)OC1c1ccc(Cl)cc1Cl` (stereo not given), the GI50 in assay [1] was > 100 µM (inactive); in assay [2] it was 97.7 µM (inactive); in [3] it was 50.5 µM (inactive); in [19], > 100 µM (inactive); in [4], 29.2 µM (inactive); in assay [5], > 100 µM (inactive). The GI50 in assay [6] is > 100 µM (inactive); in assay [7], 65.6 µM (inactive); in [8], 93.1 µM (inactive); in assay [9] it was 93.3 µM (inactive); in assay [11], 75.3 µM (inactive); in assay [12], > 100 µM (inactive). Moreover, the GI50 is 64.3 µM (inactive) in assay [13]; > 100 µM (inactive) in [14]; > 100 µM (inactive) in [15]; 41.2 µM (inactive) in [16]; > 100 µM (inactive) in assay [17]; 42 µM (inactive) in assay [18].

With `CC1=NN(C(=O)CC(=O)Nc2cccc(C)c2)C(=O)C1/N=N/c1ccc(S(=O)(=O)CCOS(=O)(=O)O)cc1` (stereo not given), the GI50 in [1] was 5.47 µM (inactive); in [2], 0.463 µM (active); in assay [3], 0.388 µM (active); in assay [19] it was 3.9 µM (inactive); in assay [4], 0.718 µM (active); in assay [5] it was 32.3 µM (inactive). Further, the GI50 in assay [6] is 0.406 µM (active); in assay [7], 0.369 µM (active); in assay [8], 0.373 µM (active); in [9] it was 0.326 µM (active); in assay [10], 0.546 µM (active); in assay [11], 0.471 µM (active). The GI50 in assay [12] is 13.1 µM (inactive); in assay [13], 3.65 µM (inactive); in assay [14], 0.309 µM (active); in assay [15], 4.18 µM (inactive); in assay [16], 1.33 µM (inactive); in assay [17], 4 µM (inactive). Also, the GI50 in assay [18] is 0.406 µM (active).

Take `c1cc2c(ncc3cscc32)s1`: the GI50 is > 100 µM (inactive) in assay [1]; > 100 µM (inactive) in assay [2]; > 100 µM (inactive) in [3]; > 100 µM (inactive) in [19]; > 61.7 µM (inactive) in assay [4]; > 100 µM (inactive) in [5]. Also, the GI50 in [6] was > 100 µM (inactive); in assay [7], > 100 µM (inactive); in assay [8] it was > 31.6 µM (inactive); in assay [9], > 10 µM (inactive); in assay [10] it was > 72.4 µM (inactive); in [11], > 100 µM (inactive). The GI50 in assay [12], in [13], in assay [14], in assay [15], in [16] and in assay [17] was > 100 µM (inactive) each time. For the same compound, the GI50 in [18] is > 100 µM (inactive).

Take `CS/C=C\C(=O)O[C@H]1C[C@@H]2[C@@H](O)c3occ(C)c3C[C@]2(C)[C@@H](C)C1`: the GI50 in [1] was 23.2 µM (inactive); in assay [2] it was 16.6 µM (inactive); in assay [3] it was 15.4 µM (inactive); in assay [19] it was 19.8 µM (inactive); in assay [4], 13.4 µM (inactive); in assay [5] it was 27.9 µM (inactive). Besides, the GI50 is 33.3 µM (inactive) in assay [6]; 14.9 µM (inactive) in [7]; 17.5 µM (inactive) in assay [8]; 36.6 µM (inactive) in [9]; 39.7 µM (inactive) in assay [10]; 16 µM (inactive) in assay [11]. The GI50 in assay [12] was 50 µM (inactive); in [13], 16.4 µM (inactive); in assay [14], 20.3 µM (inactive); in [15], 29.6 µM (inactive); in assay [16] it was 14.9 µM (inactive); in assay [17], 35.6 µM (inactive). Further, the GI50 in [18] is 20.7 µM (inactive).

In the case of `CC(=O)C(=CNc1c(C)n(C)n(-c2ccccc2)c1=O)C(C)=O`, the GI50 in [2], in assay [3], in [4], in [5], in assay [6] and in [7] was > 100 µM (inactive) in each case. The GI50 in [8], in assay [9], in [10], in [20], in [11] and in assay [12] was > 100 µM (inactive) in each case. Also, the GI50 in assay [13], in assay [16], in assay [17] and in assay [18] was > 100 µM (inactive) in each case.

Take `Nc1ccc(-c2nn3c(COc4ccc(Cl)cc4)nnc3s2)cc1`: the GI50 in assay [2], in assay [3], in assay [19], in assay [5], in assay [6] and in [7] was > 100 µM (inactive) each time. The GI50 in [9] was > 100 µM (inactive); in assay [10], 54.2 µM (inactive); in [11], > 100 µM (inactive); in [12] it was > 100 µM (inactive); in assay [13] it was > 100 µM (inactive); in assay [15], 25.3 µM (inactive). For the same compound, the GI50 in [16] is > 100 µM (inactive); in assay [17] it was 88.1 µM (inactive); in assay [18], 51.3 µM (inactive).

These data come from ChEMBL document CHEMBL1201862, “PubChem BioAssay data set” (2004).
